The text below walks through data of article PMC10504751, “Chalcone/1,3,4-Oxadiazole/Benzimidazole hybrids as novel anti-proliferative agents inducing apoptosis and inhibiting EGFR & BRAFV^600E” (BMC Chemistry, 2023).

Read-outs that look alike come from different tables or passages of the source.

What all share (assay): NCI one-dose SRB anti-proliferative screen
Assay type in all cases: cell-based

One assay concerns 786-0. The note with it: Homo sapiens, read-out: Cell growth inhibition %. The method, boiled down: (§1)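 Compounds were tested at a single 10 µM concentration within a 60-cell-line panel covering nine tumour subpanels. Growth was read colorimetrically by sulforhodamine B staining.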
The test system of a further assay is A498. The note with it: Homo sapiens, read-out: Cell growth inhibition %. The method, boiled down: as §1
In the next assay the test system is BT-549. The note with it: Homo sapiens, read-out: Cell growth inhibition %. In short, it runs like this:
as §1

The next assay deals with CAKI-1. The note with it: Homo sapiens, read-out: Cell growth inhibition %. In short, it runs like this: as §1
For another assay, the system named is EKVX. The note with it: Homo sapiens, read-out: Cell growth inhibition %. The method, boiled down: as §1
Another assay has as its system HCC-2998. The note with it: Homo sapiens, read-out: Cell growth inhibition %. In short, it runs like this:
as §1

The subject of a further assay is HOP-62. The note with it: Homo sapiens, read-out: Cell growth inhibition %. The method, boiled down:
as §1

The next assay concerns IGROV1. The note with it: Homo sapiens, IGROV-1, read-out: Cell growth inhibition %. In short, it runs like this: as §1
A further assay deals with MCF7. The note with it: Homo sapiens, read-out: Cell growth inhibition %. In short, it runs like this:
as §1

A further assay has as its system MDA-MB-231/ATCC. The note with it: Homo sapiens, read-out: Cell growth inhibition %. The method, boiled down: as §1
For another assay, the system named is MDA-MB-435. The note with it: Homo sapiens, read-out: Cell growth inhibition %. In short, it runs like this: as §1
Another assay relates to NCI-H226. The note with it: Homo sapiens, read-out: Cell growth inhibition %. In short, it runs like this:
as §1

Another assay relates to NCI-H23. The note with it: Homo sapiens, read-out: Cell growth inhibition %. The method, boiled down: as §1
Another assay concerns NCI-H322M. The note with it: Homo sapiens, read-out: Cell growth inhibition %. In short, it runs like this: as §1
The next assay has as its system NCI-H522. The note with it: Homo sapiens, read-out: Cell growth inhibition %. In short, it runs like this:
as §1

Another assay concerns OVCAR-8. The note with it: Homo sapiens, read-out: Cell growth inhibition %. The method, boiled down:
as §1

The test system of the next assay is SF-295. The note with it: Homo sapiens, read-out: Cell growth inhibition %. In short, it runs like this:
as §1

Another assay relates to SK-MEL-5. The note with it: Homo sapiens, read-out: Cell growth inhibition %. The method, boiled down:
as §1

The test system of another assay is SK-OV-3. The note with it: Homo sapiens, read-out: Cell growth inhibition %. In short, it runs like this: as §1
In the next assay the test system is SNB-19. The note with it: Homo sapiens, read-out: Cell growth inhibition %. In short, it runs like this:
as §1

In another assay the test system is SR. The note with it: Homo sapiens, read-out: Cell growth inhibition %. In short, it runs like this:
as §1

A further assay relates to TK-10. The note with it: Homo sapiens, read-out: Cell growth inhibition %. The method, boiled down:
as §1

The subject of a further assay is U251. The note with it: Homo sapiens, U-251, read-out: Cell growth inhibition %. In short, it runs like this:
as §1

Another assay has as its system UO-31. The note with it: Homo sapiens, read-out: Cell growth inhibition %. The method, boiled down:
as §1

Where [1] appears, read: 786-0 (Renal Cancer), NCI one dose 10 µM.
Where [2] appears, read: A498 (Renal Cancer), NCI one dose 10 µM.
Where [3] appears, read: BT-549 (Breast Cancer), NCI one dose 10 µM.
The mark [4] stands for this setting: CAKI-1 (Renal Cancer), NCI one dose 10 µM.
[5] abbreviates: EKVX (Non-Small Cell Lung Cancer), NCI one dose 10 µM.
[6] abbreviates: HCC-2998 (Colon Cancer), NCI one dose 10 µM.
The mark [7] stands for this setting: HOP-62 (Non-Small Cell Lung Cancer), NCI one dose 10 µM.
Setting [8] is: IGROV1 (Ovarian Cancer), NCI one dose 10 µM.
The mark [9] stands for this setting: MCF7 (Breast Cancer), NCI one dose 10 µM.
The mark [10] stands for this setting: MDA-MB-231/ATCC (Breast Cancer), NCI one dose 10 µM.
[11] abbreviates: MDA-MB-435 (Melanoma), NCI one dose 10 µM.
Where [12] appears, read: NCI-H226 (Non-Small Cell Lung Cancer), NCI one dose 10 µM.
Where [13] appears, read: NCI-H23 (Non-Small Cell Lung Cancer), NCI one dose 10 µM.
The mark [14] stands for this setting: NCI-H322M (Non-Small Cell Lung Cancer), NCI one dose 10 µM.
[15] abbreviates: NCI-H522 (Non-Small Cell Lung Cancer), NCI one dose 10 µM.
[16] abbreviates: OVCAR-8 (Ovarian Cancer), NCI one dose 10 µM.
Where [17] appears, read: SF-295 (CNS Cancer), NCI one dose 10 µM.
Setting [18] is: SK-MEL-5 (Melanoma), NCI one dose 10 µM.
Where [19] appears, read: SK-OV-3 (Ovarian Cancer), NCI one dose 10 µM.
Where [20] appears, read: SNB-19 (CNS Cancer), NCI one dose 10 µM.
Setting [21] is: SR (Leukemia), NCI one dose 10 µM.
Setting [22] is: TK-10 (Renal Cancer), NCI one dose 10 µM.
The mark [23] stands for this setting: U251 (CNS Cancer), NCI one dose 10 µM.
Where [24] appears, read: UO-31 (Renal Cancer), NCI one dose 10 µM.

What is called inhibition is the relative decrease from the control value, in per cent. Take `COc1ccc(-c2nc3cc(-c4nnc(SCC(=O)Nc5ccc(C(=O)/C=C/c6ccc(OC)c(OC)c6)cc5)o4)ccc3[nH]2)cc1` [Compound 7n, 2-{5-[2-(4-Methoxyphenyl)-1 H-benzo[d]imidazol-5-yl]-1,3,4-oxadiazol-2-ylthio}-N-{4-[(E)-3-(3,4-dimethoxyphenyl)acryloyl]phenyl}acetamide]: the inhibition at 10 µM in the assay with 786-0 (786-0, Renal cancer, NCI one dose) is 8.7%; in the assay on A498 (A498, Renal cancer, NCI one dose), 0%; in the assay on BT-549 (BT-549, Breast cancer, NCI one dose) it was 1.04%; with CAKI-1 (CAKI-1, Renal cancer, NCI one dose), 1.11%; in the assay with EKVX (EKVX, Non-Small Cell Lung Cancer, NCI one dose) it was 4.36%; in the assay on HCC-2998 (HCC-2998, Colon cancer, NCI one dose), 0%. Also, the inhibition at 10 µM is 5.22% with HOP-62 (HOP-62, Non-Small Cell Lung Cancer, NCI one dose); 12.3% in the assay with IGROV1 (IGROV1, Ovarian Cancer, NCI one dose); 55.5% in the assay with MCF7 (MCF7, Breast cancer, NCI one dose); 0% in the assay on MDA-MB-231/ATCC (MDA-MB-231/ATCC, Breast cancer, NCI one dose); 6.15% with MDA-MB-435 (MDA-MB-435, Melanoma, NCI one dose); 3.76% with NCI-H226 (NCI-H226, Non-Small Cell Lung Cancer, NCI one dose). Moreover, the inhibition at 10 µM in the assay on NCI-H23 (NCI-H23, Non-Small Cell Lung Cancer, NCI one dose) came out at 19.9%; in the assay on NCI-H322M (NCI-H322M, Non-Small Cell Lung Cancer, NCI one dose), 5.07%; with NCI-H522 (NCI-H522, Non-Small Cell Lung Cancer, NCI one dose), 24.6%; with OVCAR-8 (OVCAR-8, Ovarian Cancer, NCI one dose), 7.51%; in the assay on SF-295 (SF-295, CNS Cancer, NCI one dose) it was 0%; in the assay with SK-MEL-5 (SK-MEL-5, Melanoma, NCI one dose) it was 16.2%. Further, the inhibition at 10 µM in the assay with SK-OV-3 (SK-OV-3, Ovarian Cancer, NCI one dose) was 0%; in the assay with SNB-19 (SNB-19, CNS Cancer, NCI one dose), 13.2%; in the assay on SR (SR, Leukemia, NCI one dose), 73.6%; with TK-10 (TK-10, Renal cancer, NCI one dose), 0%; with U251 (U251, CNS Cancer, NCI one dose) it was 25.3%; in the assay on UO-31 (UO-31, Renal cancer, NCI one dose) it was 26.4%.

In the case of `O=C(CSc1nnc(-c2ccc3[nH]c(-c4ccc(Cl)cc4)nc3c2)o1)Nc1ccc(C(=O)/C=C/c2ccc(Cl)cc2)cc1` [Compound 7g, 2-{5-[2-(4-Chlorophenyl)-1 H-benzo[d]imidazol-5-yl]-1,3,4-oxadiazol-2-ylthio}-N-{4-[(E)-3-(4-chlorophenyl)acryloyl]phenyl}acetamide], the inhibition at 10 µM with 786-0 (setting [1]) turned out to be 7.38%; in the assay on A498 (setting [2]), 9.85%; with BT-549 (setting [3]) it was 0.37%; with CAKI-1 (setting [4]), 16.4%; with EKVX (setting [5]) it was 6.19%; in the assay with HCC-2998 (setting [6]), 0%. In addition, the inhibition at 10 µM in the assay on HOP-62 (setting [7]) came out at 2.12%; with IGROV1 (setting [8]), 14.4%; in the assay on MCF7 (setting [9]) it was 44.8%; in the assay on MDA-MB-231/ATCC (setting [10]), 9.38%; in the assay with MDA-MB-435 (setting [11]), 0.11%; in the assay on NCI-H226 (setting [12]), 14%. Besides, the inhibition at 10 µM in the assay on NCI-H23 (setting [13]) was 0%; in the assay on NCI-H322M (setting [14]), 4.64%; in the assay on NCI-H522 (setting [15]), 11.6%; in the assay with OVCAR-8 (setting [16]), 2.88%; with SF-295 (setting [17]) it was 7.04%; with SK-MEL-5 (setting [18]), 6.32%. The inhibition at 10 µM came out at 0% with SK-OV-3 (setting [19]); 0.54% with SNB-19 (setting [20]); 50.2% in the assay with SR (setting [21]); 0% in the assay with TK-10 (setting [22]); 17.8% in the assay on U251 (setting [23]); 24.7% in the assay on UO-31 (setting [24]).

For `COc1ccc(-c2nc3cc(-c4nnc(SCC(=O)Nc5ccc(C(=O)/C=C/c6ccc(Cl)cc6)cc5)o4)ccc3[nH]2)cc1OC` [Compound 7q, 2-{5-[2-(3,4-Dimethoxyphenyl)-1 H-benzo[d]imidazol-5-yl]-1,3,4-oxadiazol-2-ylthio}-N-{4-[(E)-3-(4-chlorophenyl)acryloyl]phenyl}acetamide], the inhibition at 10 µM was determined as 0% in the assay on 786-0 (setting [1]); 0% in the assay with A498 (setting [2]); 0% with BT-549 (setting [3]); 0% in the assay on CAKI-1 (setting [4]); 8.14% in the assay with EKVX (setting [5]); 0% with HCC-2998 (setting [6]). The inhibition at 10 µM was determined as 0% in the assay on HOP-62 (setting [7]); 8.1% in the assay on IGROV1 (setting [8]); 24.1% in the assay on MCF7 (setting [9]); 4.84% in the assay with MDA-MB-231/ATCC (setting [10]); 0% in the assay with MDA-MB-435 (setting [11]); 1.46% in the assay on NCI-H226 (setting [12]). Besides, the inhibition at 10 µM was 0% in the assay on NCI-H23 (setting [13]); 4.21% with NCI-H322M (setting [14]); 1.57% with NCI-H522 (setting [15]); 0% in the assay with OVCAR-8 (setting [16]); 1.96% with SF-295 (setting [17]); 2.38% in the assay on SK-MEL-5 (setting [18]). The inhibition at 10 µM in the assay on SK-OV-3 (setting [19]) amounted to 0%; in the assay on SNB-19 (setting [20]), 0%; with SR (setting [21]), 27%; in the assay with TK-10 (setting [22]) it was 0%; in the assay on U251 (setting [23]), 0%; with UO-31 (setting [24]), 13%.
